What all share (assay type): binding
Assay [1] has as its target T1, JAK3 (Homo sapiens, UniProt P52333).
T1 construct: endogenous in cells; host or cells: Molt4 (ATCC CRL-1582) and Ramos (ATCC CRL-1596) cells; mixed lysate 1:2
T1 sequence (P52333 1-1124): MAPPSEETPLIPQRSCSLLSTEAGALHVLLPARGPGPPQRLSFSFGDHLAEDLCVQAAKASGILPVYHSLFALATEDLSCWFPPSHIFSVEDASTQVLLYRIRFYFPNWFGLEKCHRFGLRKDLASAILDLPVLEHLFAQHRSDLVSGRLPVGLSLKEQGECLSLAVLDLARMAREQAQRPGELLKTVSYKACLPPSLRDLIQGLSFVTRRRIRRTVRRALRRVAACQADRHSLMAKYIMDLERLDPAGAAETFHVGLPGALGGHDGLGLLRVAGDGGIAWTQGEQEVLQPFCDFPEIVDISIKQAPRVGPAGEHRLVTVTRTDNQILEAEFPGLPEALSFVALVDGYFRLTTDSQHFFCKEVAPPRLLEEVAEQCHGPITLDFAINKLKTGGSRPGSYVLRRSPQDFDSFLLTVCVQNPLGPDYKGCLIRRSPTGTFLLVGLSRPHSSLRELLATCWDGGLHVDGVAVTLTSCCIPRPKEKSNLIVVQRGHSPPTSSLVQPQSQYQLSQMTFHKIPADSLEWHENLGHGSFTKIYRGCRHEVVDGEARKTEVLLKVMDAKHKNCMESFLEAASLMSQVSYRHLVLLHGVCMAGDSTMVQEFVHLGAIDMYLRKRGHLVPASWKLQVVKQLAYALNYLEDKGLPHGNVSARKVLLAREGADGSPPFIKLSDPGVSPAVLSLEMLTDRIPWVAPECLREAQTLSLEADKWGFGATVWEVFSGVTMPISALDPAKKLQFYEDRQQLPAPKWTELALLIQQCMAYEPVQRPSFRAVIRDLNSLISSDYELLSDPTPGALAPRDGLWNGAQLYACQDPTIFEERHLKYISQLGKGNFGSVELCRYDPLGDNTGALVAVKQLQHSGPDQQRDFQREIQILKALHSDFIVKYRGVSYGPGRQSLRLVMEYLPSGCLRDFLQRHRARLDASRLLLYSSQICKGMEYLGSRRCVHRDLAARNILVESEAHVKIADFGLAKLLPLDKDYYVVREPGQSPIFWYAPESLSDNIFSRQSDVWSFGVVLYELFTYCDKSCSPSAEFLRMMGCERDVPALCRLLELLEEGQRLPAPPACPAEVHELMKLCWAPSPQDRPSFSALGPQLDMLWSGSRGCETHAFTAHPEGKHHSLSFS
The experiment in a line: Kinobeads assay with immunodetection, JAK3. Conditions: for IC50: Kinobeads assay, mixed Molt4/Ramos lysate, read-out: Inhibition values (IC50) JAK3. Here is the method:
(§1) Determination of the Effect of the Compounds According to the Invention on Janus Kinases (JAK Family) in Kinobeads™ Assays with Immunodetection of Kinases
(§2) The compounds of the present invention as described in the previous examples were tested in a Kinobeads™ assay as described for ZAP-70 (WO-A 2007/137867). Briefly, test compounds (at various concentrations) and the affinity matrix with the immobilized aminopyrido-pyrimidine ligand 24 were added to cell lysate aliquots and allowed to bind to the proteins in the lysate sample. After the incubation time the beads with captured proteins were separated from the lysate. Bound proteins were then eluted and the presence of JAK1, JAK2, JAK3 and TYK2 was detected and quantified using specific antibodies in a dot blot procedure and the Odyssey infrared detection system. Dose response curves for individual kinases were generated and IC50 values calculated. Kinobeads™ assays for ZAP-70 (WO-A 2007/137867) and for kinase selectivity profiling (WO-A 2006/134056) have been previously described.
(§3) The affinity matrix was washed two times with 15 mL of 1×DP buffer containing 0.2% NP40 (IGEPAL® CA-630, Sigma, #13021) and then resuspended in 1×DP buffer containing 0.2% NP40 (3% beads slurry).
(§4) 5×DP buffer: 250 mM Tris-HCl pH 7.4, 25% Glycerol, 7.5 mM MgCl2, 750 mM NaCl, 5 mM Na3VO4; filter the 5×DP buffer through a 0.22 μm filter and store in aliquots at −80° C. The 5×DP buffer is diluted with H2O to 1×DP buffer containing 1 mM DTT and 25 mM NaF.
(§5) Stock solutions of test compounds were prepared in DMSO. In a 96 well plate 30 μL solution of diluted test compounds at 5 mM in DMSO were prepared. Starting with this solution a 1:3 dilution series (9 steps) was prepared. For control experiments (no test compound) a buffer containing 2% DMSO was used.
(§6) Molt4 cells (ATCC catalogue number CRL-1582) and Ramos cells (ATCC catalogue number CRL-1596) were grown in 1 L Spinner flasks (Integra Biosciences, #182101) in suspension in RPMI 1640 medium (Invitrogen, #21875-034) supplemented with 10% Fetal Bovine Serum (Invitrogen) at a density between 0.15×10^6 and 1.2×10^6 cells/mL. Cells were harvested by centrifugation, washed once with 1×PBS buffer (Invitrogen, #14190-094) and cell pellets were frozen in liquid nitrogen and subsequently stored at −80° C. Cells were homogenized in a Potter S homogenizer in lysis buffer: 50 mM Tris-HCl, 0.8% NP40, 5% glycerol, 150 mM NaCl, 1.5 mM MgCl2, 25 mM NaF, 1 mM sodium vanadate, 1 mM DTT, pH 7.5. One complete EDTA-free tablet (protease inhibitor cocktail, Roche Diagnostics, 1873580) per 25 ml, buffer was added. The material was dounced 10 times using a mechanized POTTER S, transferred to 50 mL falcon tubes, incubated for 30 minutes on ice and spun down for 10 minutes at 20,000 g at 4° C. (10,000 rpm in Sorvall SLA600, precooled). The supernatant was transferred to an ultracentrifuge (UZ)-polycarbonate tube (Beckmann, 355654) and spun for 1 hour at 100.000 g at 4° C. (33.500 rpm in Ti50.2, precooled). The supernatant was transferred again to a fresh 50 mL falcon tube, the protein concentration was determined by a Bradford assay (BioRad) and samples containing 50 mg of protein per aliquot were prepared. The samples were immediately used for experiments or frozen in liquid nitrogen and stored frozen at −80° C.
(§7) Cell lysate (approximately 50 mg protein per plate) was thawed in a water bath at room temperature and then stored on ice. To the thawed cell lysate 1×DP 0.8% NP40 buffer containing protease inhibitors (1 tablet for 25 mL buffer; EDTA-free protease inhibitor cocktail; Roche Diagnostics 1873580) was added in order to reach a final protein concentration of 10 mg/mL total protein. The diluted cell lysate was stored on ice. Mixed Molt4/Ramos lysate was prepared by combining one volume of Molt4 lysate and two volumes of Ramos lysate (ratio 1:2). […]

For assay [2], the target named is T2, TYK2 (Homo sapiens, UniProt P29597).
T2 construct: endogenous in cells; host or cells: Molt4 (ATCC CRL-1582) and Ramos (ATCC CRL-1596) cells; mixed lysate 1:2
The experiment in a line: Kinobeads assay with immunodetection, TYK2. Conditions: for IC50: Kinobeads assay, mixed Molt4/Ramos lysate, read-out: Inhibition values (IC50) Tyk2. Here is the method:
as §1, §2, §3, §4, §5, §6, §7

Assay [3] has as its target T3, JAK1 (Homo sapiens, UniProt P23458).
T3 construct: endogenous in cells; host or cells: Molt4 (ATCC CRL-1582) and Ramos (ATCC CRL-1596) cells; mixed lysate 1:2
The experiment in a line: Kinobeads assay with immunodetection, JAK1. Conditions: for IC50: Kinobeads assay, mixed Molt4/Ramos lysate, read-out: Inhibition values (IC50) JAK1. Here is the method:
as §1, §2, §3, §4, §5, §6, §7

Assay [4] concerns the target T4, JAK2 (Homo sapiens, UniProt O60674).
T4 construct: endogenous in cells; host or cells: Molt4 (ATCC CRL-1582) and Ramos (ATCC CRL-1596) cells; mixed lysate 1:2
As to the kind of experiment: Kinobeads assay with immunodetection, JAK2. Conditions: mixed Molt4/Ramos lysate, read-out: Inhibition values (IC50) JAK2. Here is the method:
as §1, §2, §3, §4, §5, §6, §7

Where only a bound is given, the exact number is not on record here.

This is an account of results in US20150005281A1, “PYRIMIDINE-2,4-DIAMINE DERIVATIVES AS KINASE INHIBITORS” (Cellzome Limited, priority 2011, published 2015).

T3 sequence (P23458 whole entry): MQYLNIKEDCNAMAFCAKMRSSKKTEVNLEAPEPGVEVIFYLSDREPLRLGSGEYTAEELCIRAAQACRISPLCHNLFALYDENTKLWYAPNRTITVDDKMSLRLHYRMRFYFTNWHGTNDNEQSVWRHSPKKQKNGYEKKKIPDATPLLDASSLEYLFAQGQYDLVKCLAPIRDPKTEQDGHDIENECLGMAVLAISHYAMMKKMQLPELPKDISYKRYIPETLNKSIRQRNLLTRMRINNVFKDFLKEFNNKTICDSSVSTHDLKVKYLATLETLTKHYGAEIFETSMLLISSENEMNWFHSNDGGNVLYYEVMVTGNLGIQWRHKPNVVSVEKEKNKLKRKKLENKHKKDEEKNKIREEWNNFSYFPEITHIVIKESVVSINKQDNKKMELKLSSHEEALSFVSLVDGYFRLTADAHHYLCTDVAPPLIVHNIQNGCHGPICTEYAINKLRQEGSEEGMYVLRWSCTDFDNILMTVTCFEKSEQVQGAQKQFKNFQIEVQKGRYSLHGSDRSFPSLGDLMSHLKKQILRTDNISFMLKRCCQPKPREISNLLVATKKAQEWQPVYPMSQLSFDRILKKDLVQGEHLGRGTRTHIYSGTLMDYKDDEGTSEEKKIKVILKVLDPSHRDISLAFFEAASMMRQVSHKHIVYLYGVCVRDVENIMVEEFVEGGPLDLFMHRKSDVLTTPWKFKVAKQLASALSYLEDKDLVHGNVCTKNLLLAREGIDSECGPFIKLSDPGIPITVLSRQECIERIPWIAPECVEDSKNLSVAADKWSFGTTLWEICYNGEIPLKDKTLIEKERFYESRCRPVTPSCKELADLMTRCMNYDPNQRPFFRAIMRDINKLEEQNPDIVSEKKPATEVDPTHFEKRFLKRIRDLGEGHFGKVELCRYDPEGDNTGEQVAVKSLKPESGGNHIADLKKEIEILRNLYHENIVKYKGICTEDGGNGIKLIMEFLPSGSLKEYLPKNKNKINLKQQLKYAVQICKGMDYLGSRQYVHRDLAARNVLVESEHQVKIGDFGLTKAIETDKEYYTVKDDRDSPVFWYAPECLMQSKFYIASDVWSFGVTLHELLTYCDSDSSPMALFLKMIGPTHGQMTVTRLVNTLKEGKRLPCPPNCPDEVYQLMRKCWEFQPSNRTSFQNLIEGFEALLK
T4 sequence (O60674 whole entry): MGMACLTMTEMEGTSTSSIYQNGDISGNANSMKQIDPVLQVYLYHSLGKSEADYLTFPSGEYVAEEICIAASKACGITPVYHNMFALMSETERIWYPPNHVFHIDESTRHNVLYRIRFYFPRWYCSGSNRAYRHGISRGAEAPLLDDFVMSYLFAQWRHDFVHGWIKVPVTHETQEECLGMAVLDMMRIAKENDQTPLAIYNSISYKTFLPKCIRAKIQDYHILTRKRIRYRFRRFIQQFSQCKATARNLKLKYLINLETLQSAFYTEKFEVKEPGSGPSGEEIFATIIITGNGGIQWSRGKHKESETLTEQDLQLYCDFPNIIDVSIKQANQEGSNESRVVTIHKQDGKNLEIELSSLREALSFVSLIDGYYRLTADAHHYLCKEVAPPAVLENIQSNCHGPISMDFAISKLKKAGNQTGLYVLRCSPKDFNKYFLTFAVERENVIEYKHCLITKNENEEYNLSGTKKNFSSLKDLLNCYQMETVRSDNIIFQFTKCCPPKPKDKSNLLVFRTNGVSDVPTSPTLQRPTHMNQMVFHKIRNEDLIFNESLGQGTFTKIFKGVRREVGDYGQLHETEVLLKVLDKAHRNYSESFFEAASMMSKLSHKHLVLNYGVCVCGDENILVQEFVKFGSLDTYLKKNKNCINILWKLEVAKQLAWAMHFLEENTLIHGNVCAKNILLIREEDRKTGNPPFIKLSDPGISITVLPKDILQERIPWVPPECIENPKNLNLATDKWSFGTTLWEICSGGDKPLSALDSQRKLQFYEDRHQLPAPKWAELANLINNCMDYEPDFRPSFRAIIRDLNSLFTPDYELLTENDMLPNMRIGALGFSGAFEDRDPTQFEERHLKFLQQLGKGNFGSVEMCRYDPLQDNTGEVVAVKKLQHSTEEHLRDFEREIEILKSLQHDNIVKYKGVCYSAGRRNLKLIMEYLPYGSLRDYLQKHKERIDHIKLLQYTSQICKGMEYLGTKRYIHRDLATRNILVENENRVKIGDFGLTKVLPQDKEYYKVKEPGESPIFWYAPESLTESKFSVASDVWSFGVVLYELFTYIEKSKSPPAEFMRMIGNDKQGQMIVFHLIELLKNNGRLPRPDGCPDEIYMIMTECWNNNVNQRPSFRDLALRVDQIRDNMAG
T2 sequence (P29597 whole entry): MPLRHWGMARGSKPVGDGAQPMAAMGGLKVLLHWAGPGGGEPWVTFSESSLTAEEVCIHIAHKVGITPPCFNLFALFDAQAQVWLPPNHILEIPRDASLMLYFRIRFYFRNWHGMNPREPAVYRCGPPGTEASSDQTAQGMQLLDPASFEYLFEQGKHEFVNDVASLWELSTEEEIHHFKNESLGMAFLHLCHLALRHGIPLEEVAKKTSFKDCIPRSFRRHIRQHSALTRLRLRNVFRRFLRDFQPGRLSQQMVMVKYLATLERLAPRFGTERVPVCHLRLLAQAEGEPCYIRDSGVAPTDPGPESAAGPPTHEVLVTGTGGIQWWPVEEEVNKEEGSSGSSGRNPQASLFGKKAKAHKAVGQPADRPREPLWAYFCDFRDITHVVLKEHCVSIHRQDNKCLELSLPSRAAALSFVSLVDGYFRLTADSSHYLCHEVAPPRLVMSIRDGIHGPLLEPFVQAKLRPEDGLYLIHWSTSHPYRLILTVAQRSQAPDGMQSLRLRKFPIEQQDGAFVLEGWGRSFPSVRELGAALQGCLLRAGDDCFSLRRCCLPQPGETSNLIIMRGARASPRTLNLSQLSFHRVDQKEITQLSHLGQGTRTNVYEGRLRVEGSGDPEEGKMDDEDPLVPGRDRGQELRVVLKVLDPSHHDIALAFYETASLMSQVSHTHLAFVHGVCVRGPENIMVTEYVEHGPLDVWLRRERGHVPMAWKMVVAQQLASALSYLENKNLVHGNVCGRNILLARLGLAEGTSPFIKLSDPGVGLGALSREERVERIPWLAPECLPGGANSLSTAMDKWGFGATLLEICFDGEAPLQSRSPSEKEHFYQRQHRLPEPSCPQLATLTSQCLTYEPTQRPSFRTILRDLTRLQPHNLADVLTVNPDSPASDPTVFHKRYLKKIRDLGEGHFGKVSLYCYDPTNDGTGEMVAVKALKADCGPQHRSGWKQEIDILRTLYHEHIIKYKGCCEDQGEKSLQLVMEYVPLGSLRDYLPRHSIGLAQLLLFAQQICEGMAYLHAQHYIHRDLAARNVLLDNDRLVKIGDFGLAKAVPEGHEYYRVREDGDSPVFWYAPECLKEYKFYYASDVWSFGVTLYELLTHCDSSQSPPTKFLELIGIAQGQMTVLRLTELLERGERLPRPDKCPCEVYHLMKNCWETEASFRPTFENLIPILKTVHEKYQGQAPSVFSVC

One may read the IC50 as the point on the concentration scale where inhibition reaches its midpoint. In the case of `C=CC(=O)N1CC[C@H](CNc2nc(Nc3cnn(C)c3)ncc2Cl)C1` [Example 22, (R)-1-(3-(((5-chloro-2-((1-methyl-1H-pyrazol-4-yl)amino)pyrimidin-4-yl)amino)methyl)pyrrolidin-1-yl)prop-2-en-1-one], in assay [1], the “Selectivity ratio over JAK2, JAK3” value is “JAK3 = 610”. The 50% inhibitory concentration (IC50) in assay [1] is less than 100 nM; in assay [2], 100 to 1000 nM; in assay [3], 100 to 1000 nM; in assay [4], 1000 to 10000 nM.
For the molecule `C=CC(=O)N1CC[C@H](CNc2nc(Nc3cnn(CCO)c3)ncc2Cl)C1` [Example 23, (R)-1-(3-(((5-chloro-2-((1-(2-hydroxyethyl)-1H-pyrazol-4-yl)amino)pyrimidin-4-yl)amino)methyl)pyrrolidin-1-yl)prop-2-en-1-one], the “Selectivity ratio over JAK2, JAK3” value in assay [1] is reported as “JAK3 = 270”. Moreover, the half-maximal inhibitory concentration (IC50) was less than 100 nM in assay [1], less than 100 nM in assay [2], less than 100 nM in assay [3] and 1000 to 10000 nM in assay [4].
On to `Cn1cc(Nc2ncc(Cl)c(NC[C@H]3CCN(S(C)(=O)=O)C3)n2)cn1` [Example 24, (R)-5-chloro-N^2-(1-methyl-1H-pyrazol-4-yl)-N^4-((1-(methylsulfonyl)pyrrolidin-3-yl)methyl)pyrimidine-2,4-diamine], for which the IC50 is 100 to 1000 nM in assay [1], less than 100 nM in assay [2], less than 100 nM in assay [3] and 100 to 1000 nM in assay [4]. In assay [3], the “Selectivity ratio over JAK2, JAK1” value is “JAK1 = 23”.
Take `C=CS(=O)(=O)N1CC[C@H](CNc2nc(Nc3cnn(C)c3)ncc2Cl)C1` [Example 25, (R)-5-chloro-N^2-(1-methyl-1H-pyrazol-4-yl)-N^4-((1-(vinylsulfonyl)pyrrolidin-3-yl)methyl)pyrimidine-2,4-diamine]: the “Selectivity ratio over JAK2, JAK3” value in assay [1] was “JAK3 = 556”. In addition, the IC50 in assay [1] is less than 100 nM; in assay [2], 100 to 1000 nM; in assay [3] it was 100 to 1000 nM; in assay [4] it was more than 10000 nM.
Turning to `CC(=O)N1CC[C@@H](CNc2nc(Nc3cnn(C)c3)ncc2Cl)C1` [Example 26, (S)-1-(3-(((5-chloro-2-((1-methyl-1H-pyrazol-4-yl)amino)pyrimidin-4-yl)amino)methyl)pyrrolidin-1-yl)ethanone], the IC50 in assay [1] was in the range of 1000 to 10000 nM; in assay [2] it was 100 to 1000 nM; in assay [3], 100 to 1000 nM; in assay [4] it was 1000 to 10000 nM. The “Selectivity ratio over JAK2, JAK1” value in assay [3] is on record as “JAK1 = 9”.
As for `CC(=O)N1CC[C@@H](CNc2nc(Nc3cnn(CCO)c3)ncc2Cl)C1` [Example 27, (S)-1-(3-(((5-chloro-2-((1-(2-hydroxyethyl)-1H-pyrazol-4-yl)amino)pyrimidin-4-yl)amino)methyl)pyrrolidin-1-yl)ethanone], the half-inhibitory concentration (IC50) in assay [1] is 100 to 1000 nM; in assay [2], 100 to 1000 nM; in assay [3] it was 100 to 1000 nM; in assay [4], 1000 to 10000 nM. Also, in assay [3], the “Selectivity ratio over JAK2, JAK1” value is listed as “JAK1 = 23”.
As for `C=CC(=O)N1CC[C@@H](CNc2nc(Nc3cnn(C)c3)ncc2Cl)C1` [Example 28, (S)-1-(3-(((5-chloro-2-((1-methyl-1H-pyrazol-4-yl)amino)pyrimidin-4-yl)amino)methyl)pyrrolidin-1-yl)prop-2-en-1-one], the half-maximal inhibitory concentration (IC50) in assay [1] is 100 to 1000 nM; in assay [2] it was 1000 to 10000 nM; in assay [3], 1000 to 10000 nM; in assay [4], more than 10000 nM.
As for `C=CC(=O)N1CC[C@@H](CNc2nc(Nc3cnn(CCO)c3)ncc2Cl)C1` [Example 29, (S)-1-(3-(((5-chloro-2-((1-(2-hydroxyethyl)-1H-pyrazol-4-yl)amino)pyrimidin-4-yl)amino)methyl)pyrrolidin-1-yl)prop-2-en-1-one], the IC50 was 100 to 1000 nM in assay [1], 1000 to 10000 nM in assay [2], 100 to 1000 nM in assay [3] and more than 10000 nM in assay [4].
`Cn1cc(Nc2ncc(Cl)c(NC[C@@H]3CCN(S(C)(=O)=O)C3)n2)cn1` [Example 30, (S)-5-chloro-N^2-(1-methyl-1H-pyrazol-4-yl)-N^4-((1-(methylsulfonyl)pyrrolidin-3-yl)methyl)pyrimidine-2,4-diamine]: the IC50 in assay [1] is 100 to 1000 nM; in assay [2], 100 to 1000 nM; in assay [3], 1000 to 10000 nM; in assay [4] it was 1000 to 10000 nM. Moreover, in assay [2] (Tyk2 over JAK2), the “Selectivity ratio over JAK2, Tyk2” value is reported as “Tyk2 = 9”.
In the case of `C=CS(=O)(=O)N1CC[C@@H](CNc2nc(Nc3cnn(C)c3)ncc2Cl)C1` [Example 31, (S)-5-chloro-N^2-(1-methyl-1H-pyrazol-4-yl)-N^4-((1-(vinylsulfonyl)pyrrolidin-3-yl)methyl)pyrimidine-2,4-diamine], the “Selectivity ratio over JAK2, JAK3” value in assay [1] is reported as “JAK3 = 190”. For the same molecule, the 50% inhibitory concentration (IC50) in assay [1] was less than 100 nM; in assay [2] it was 100 to 1000 nM; in assay [3], 100 to 1000 nM; in assay [4] it was 1000 to 10000 nM.
Regarding `CC(=O)N1CCCC[C@H]1CNc1nc(Nc2cnn(C)c2)ncc1Cl` [Example 32, (S)-1-(2-(((5-chloro-2-((1-methyl-1H-pyrazol-4-yl)amino)pyrimidin-4-yl)amino)methyl)piperidin-1-yl)ethanone], the 50% inhibitory concentration (IC50) was 1000 to 10000 nM in assay [1], 1000 to 10000 nM in assay [2], 1000 to 10000 nM in assay [3] and more than 10000 nM in assay [4].
